Assays:
5HT2c = target: T1, 5HT2c (Rattus norvegicus, UniProt P08909); experiment: Ca2+ mobilization by FACS (Indo-1) in NIH3T3-POP cells expressing 5HT2c; format: cell-based; settings: Mesulergine (10 μM) pretreated division arrested cells, 10 μM 5HT
T1 sequence (P08909 33-460): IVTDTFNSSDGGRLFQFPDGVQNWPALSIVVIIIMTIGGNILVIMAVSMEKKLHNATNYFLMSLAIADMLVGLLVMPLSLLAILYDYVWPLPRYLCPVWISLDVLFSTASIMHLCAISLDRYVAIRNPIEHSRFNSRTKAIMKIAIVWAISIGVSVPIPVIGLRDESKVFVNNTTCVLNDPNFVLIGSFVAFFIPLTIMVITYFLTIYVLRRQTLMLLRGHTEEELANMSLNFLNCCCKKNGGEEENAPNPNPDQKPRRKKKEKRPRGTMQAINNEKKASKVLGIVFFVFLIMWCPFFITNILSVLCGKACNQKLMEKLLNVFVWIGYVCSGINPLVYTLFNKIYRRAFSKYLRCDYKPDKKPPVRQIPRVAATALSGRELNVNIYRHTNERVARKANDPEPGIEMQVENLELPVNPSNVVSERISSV
Text: (§1) In order to measure and to analyze Ca^2+ mobilization, a commercially available cell sorter was used. Excitation was set at 360 nm, and emissions were set at both 400 (+/−15 nm) and 500 (+/−20)nm. The emissions were monitored simultaneously, and the emission ratio at 400 nm/500 nm was used to report the intracellular rise of Ca^2+ concentration. Untreated cells were used to set a baseline ratio.

parental NIH3T3 cells = experiment: Ca2+ mobilization control in untransfected parental NIH3T3 cells; format: cell-based; settings: parental NIH3T3 cells not transfected; data not shown
Text: as §1

cells responding to serotonin in Ca++ mobilization (5HT2c) | Compound | fluorescence change when treated with serotonin (parental NIH3T3 cells)
0.1% | CN1C[C@@H](NS(=O)(=O)N(C)C)C[C@@H]2c3cccc4c3c(cn4C)C[C@H]21 [Mesulergine] | –
– | NCCc1c[nH]c2ccc(O)cc12 [serotonin] | no fluorescence change

Reference: patent US20120276545A1, “METHOD FOR USING DIVISION ARRESTED CELLS IN SCREENING ASSAYS” (LIFE TECHNOLOGIES CORPORATION, priority 2002, published 2012)
